Test results taken from the supplement of paper PMC10307832.

Experiments:
Test in all cases: relative viability (nuclei count vs DMSO), 5 days (fraction); higher = more cells survive
Darinaparsin = compound: C[As](C)SC[C@H](NC(=O)CC[C@H](N)C(=O)O)C(=O)NCC(=O)O [Darinaparsin]
How it was run: (§1)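 Lung cancer cell lines in 1536-well plates were kept overnight at 37 °C, then pinned with five library-drug doses (not always all listed) spaced by √10 on vehicle-anchored plates. After 5 days without medium change, cells were fixed, permeabilised and Hoechst-stained in one step, imaged at 4×, and nuclei were counted with MetaXpress. Viability is treated-well nuclei divided by vehicle-well nuclei, taken as the median over plates. Plates passed only with control CV below 25% and at least one doubling.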

QS11 = compound: C1CC2=C(C1)C=C(C=C2)OC3=NC(=C4C(=N3)N(C=N4)CC5=CC=C(C=C5)C6=CC=CC=C6)N[C@@H](CC7=CC=CC=C7)CO [QS11]
How it was run: as §1

AZ628 = compound: CC1=C(C=C(C=C1)NC(=O)C2=CC(=CC=C2)C(C)(C)C#N)NC3=CC4=C(C=C3)N=CN(C4=O)C [AZ628]
How it was run: as §1

| Cell Line | relative viability (Darinaparsin; 0.08 µM) | relative viability (Darinaparsin; 0.8 µM) | relative viability (Darinaparsin; 2.53 µM) | relative viability (Darinaparsin; 8 µM) | relative viability (QS11; 0.08 µM) | relative viability (QS11; 0.253 µM) | relative viability (QS11; 0.8 µM) | relative viability (QS11; 2.53 µM) | relative viability (QS11; 8 µM) | relative viability (AZ628; 0.08 µM) | relative viability (AZ628; 0.253 µM) | relative viability (AZ628; 0.8 µM) | relative viability (AZ628; 2.53 µM) | relative viability (AZ628; 8 µM) |
| --- | --- | --- | --- | --- | --- | --- | --- | --- | --- | --- | --- | --- | --- | --- |
| EMC-BAC-2 | 1.18 | 0.942 | 1.04 | 1.01 | 1.02 | 0.964 | 0.86 | 0.986 | 0.79 | 1.05 | 1 | 1.04 | 1.07 | 1.09 |
| EPLC-272H | 0.8 | 0.841 | 0.902 | 0.992 | 0.698 | 1.02 | 0.949 | 0.995 | 0.908 | 0.955 | 0.848 | 0.971 | 0.953 | 0.628 |
| H3255 | 1.02 | 1.01 | 0.896 | 1.01 | 0.947 | 1.01 |  | 1.01 | 1.08 | 0.996 | 0.908 | 0.975 | 1.02 | 0.693 |
| HARA | 1.08 | 0.88 | 0.914 | 1.04 | 0.931 | 0.875 |  | 1.02 | 0.995 | 0.978 | 0.962 | 0.825 | 0.974 | 0.563 |
| HCC-15 | 1.18 | 1 | 0.992 | 1.14 | 1.02 | 1.06 | 0.693 | 0.971 | 0.915 | 1.02 | 0.924 | 0.858 | 0.86 | 0.56 |
| HCC-44 | 0.964 | 0.957 | 0.987 | 0.996 | 1.07 | 0.913 | 0.735 | 0.969 | 0.83 | 1.02 | 1.03 | 0.988 | 0.987 | 0.984 |
| HCC-78 | 1 | 0.918 | 0.936 | 1.09 | 0.958 | 0.955 | 0.94 | 1.03 | 1.05 | 1.09 | 0.911 | 1.08 | 1.05 | 0.932 |
| HCC-366 | 1.01 | 1.07 | 1.03 | 1.32 | 1.01 | 1.01 |  | 0.98 | 0.447 | 1.01 | 0.952 | 0.884 | 0.955 | 0.876 |
| HCC-827 | 1.09 | 1.02 | 1.07 | 1.16 | 1 | 1.13 | 0.813 | 1.02 | 0.931 | 1.03 | 1.01 | 1.03 | 1.07 | 0.839 |
| HOP-62 | 1.07 | 1.08 | 0.95 | 1.08 | 1.06 | 1.09 | 0.867 | 0.922 | 0.88 | 1.07 | 1.07 | 0.937 | 1.09 | 0.573 |
| IA-LM | 1.16 | 1.05 | 1.16 | 1.12 | 1 | 1.1 | 0.576 | 0.902 | 0.996 | 1.15 | 0.871 | 0.589 | 0.607 | 0.266 |
| LC-2-ad | 1.06 | 0.996 | 1.01 | 1.2 | 1.01 | 1.05 | 0.808 | 0.972 | 0.955 | 1.07 | 0.911 | 0.88 | 0.928 | 0.768 |
| LCLC-103H | 1.15 | 0.923 | 0.976 | 1.15 | 1.01 | 1 | 0.749 | 0.988 | 1.05 | 0.99 | 0.891 | 1.07 | 0.998 | 0.903 |
